In PubChem BioAssay AID330 (DTP/NCI, 2004):
“And” between values parts separate entries of the source, which are not always exact repeats. Identical values can stand only once. Inconclusive results and toxic doses are left out. The calls were made as follows: active = survival T/C of 150% or more; inactive = T/C below 125% in these data.

Tested on: P388 leukemia ip, CD2F1 mice, survival T/C
Test: NCI In Vivo Anticancer Drug Screen. Data for tumor model P388 Leukemia (intraperitoneal) in CD2F1 (CDF1) mice
Details: endpoint: median survival time, higher = longer survival
Procedure, shortened: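 Mice carrying the transplanted tumor received test compound or vehicle. Survival was recorded in each group, and the value is the treated-group measurement divided by that of the vehicle-treated control group.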

[1] = dose: 60.0 mg/kg/injection, schedule: Q01DX005 (ip), vehicle: Klucel (hydroxypropylcellulose) (HPC)
[2] = dose: 120.0 mg/kg/injection, schedule: Q01DX005 (ip), vehicle: Klucel (hydroxypropylcellulose) (HPC)
[3] = dose: 240.0 mg/kg/injection, schedule: Q01DX005 (ip), vehicle: Klucel (hydroxypropylcellulose) (HPC)
[4] = dose: 50.0 mg/kg/injection, schedule: Q01DX005 (ip), vehicle: saline
[5] = dose: 100.0 mg/kg/injection, schedule: Q01DX005 (ip), vehicle: saline
[6] = dose: 200.0 mg/kg/injection, schedule: Q01DX005 (ip), vehicle: saline
[7] = dose: 50.0 mg/kg/injection, schedule: Q01DX009 (ip), vehicle: saline
[8] = dose: 100.0 mg/kg/injection, schedule: Q01DX009 (ip), vehicle: saline
[9] = dose: 200.0 mg/kg/injection, schedule: Q01DX009 (ip), vehicle: saline
[10] = dose: 60.0 mg/kg/injection, schedule: Q01DX005 (ip), vehicle: saline with Tween-80
[11] = dose: 120.0 mg/kg/injection, schedule: Q01DX005 (ip), vehicle: saline with Tween-80
[12] = dose: 240.0 mg/kg/injection, schedule: Q01DX005 (ip), vehicle: saline with Tween-80
[13] = dose: 50.0 mg/kg/injection, schedule: Q01DX009 (ip), vehicle: Klucel (hydroxypropylcellulose) (HPC)
[14] = dose: 100.0 mg/kg/injection, schedule: Q01DX009 (ip), vehicle: Klucel (hydroxypropylcellulose) (HPC)
[15] = dose: 200.0 mg/kg/injection, schedule: Q01DX009 (ip), vehicle: Klucel (hydroxypropylcellulose) (HPC)
[16] = dose: 50.0 mg/kg/injection, schedule: Q04DX002 (ip), vehicle: saline with Tween-80
[17] = dose: 25.0 mg/kg/injection, schedule: Q01DX009 (ip), vehicle: saline with Tween-80
[18] = dose: 50.0 mg/kg/injection, schedule: Q01DX009 (ip), vehicle: saline with Tween-80
[19] = dose: 100.0 mg/kg/injection, schedule: Q01DX009 (ip), vehicle: saline with Tween-80
[20] = dose: 200.0 mg/kg/injection, schedule: Q01DX009 (ip), vehicle: saline with Tween-80

Measured: T/C

O=C(NC1C=Nc2ccccc2NC1=O)c1ccc(Cl)cc1 (stereo unspecified)
inactive: [1] 91 % of control | [2] 98 % of control | [3] 91 % of control

CC12Cc3ccccc3CC1OCN1CN2COC2Cc3ccccc3CC21C (stereo unspecified)
inactive: [4] 105 % of control | [5] 98 % of control | [6] 90 % of control

Cn1nnc(C(=O)O)n1
inactive: dose: 50.0 mg/kg/injection, schedule: Q01DX001 (ip), vehicle: saline 100 % of control | dose: 100.0 mg/kg/injection, schedule: Q01DX001 (ip), vehicle: saline 100 % of control | dose: 100.0 mg/kg/injection, schedule: Q04DX003 (ip), vehicle: saline 103 % of control | dose: 200.0 mg/kg/injection, schedule: Q01DX001 (ip), vehicle: saline 101 % of control | dose: 200.0 mg/kg/injection, schedule: Q04DX003 (ip), vehicle: saline 103 % of control | dose: 400.0 mg/kg/injection, schedule: Q04DX003 (ip), vehicle: saline 100 % of control

CC1(C)CN(C(C)(C)C)CC(C)(C)C(O)C1=O (stereo unspecified)
inactive: dose: 100.0 mg/kg/injection, schedule: Q01DX001 (ip), vehicle: saline with Tween-80 100 % of control | dose: 200.0 mg/kg/injection, schedule: Q01DX001 (ip), vehicle: saline with Tween-80 118 % of control | dose: 400.0 mg/kg/injection, schedule: Q01DX001 (ip), vehicle: saline with Tween-80 104 % of control

COC(=O)C1CSC2(CCCN(Cc3ccccc3)C2)N1 (stereo unspecified)
inactive: [7] 105 % of control | [8] 122 % of control | [9] 109 % of control

COc1ccc(/C=C/Cc2cc3c(cc2OC)OCO3)cc1
inactive: [10] 104 % of control | [11] 93 % of control | [12] 90 % of control

CC(=O)C1CCC(=O)N1C(C)=O (stereo unspecified)
inactive: [7] 100 % of control | [8] 106 % of control | [9] 114 % of control

C/C(=N\O)C1(O)CCCCC1
inactive: [13] 108 % of control | [14] 108 % of control | [15] 105 % of control | dose: 400.0 mg/kg/injection, schedule: Q01DX009 (ip), vehicle: Klucel (hydroxypropylcellulose) (HPC) 113 % of control

O=c1[nH]c2c(cnn2-c2ccc(Cl)cc2)c(=O)n1-c1cccc(Cl)c1
inactive: dose: 12.5 mg/kg/injection, schedule: Q01DX009 (ip), vehicle: Klucel (hydroxypropylcellulose) (HPC) 88 % of control | dose: 25.0 mg/kg/injection, schedule: Q01DX009 (ip), vehicle: Klucel (hydroxypropylcellulose) (HPC) 94 % of control | [13] 100 % of control

C/C(=N\N/C(N)=N/S(=O)(=O)c1ccc(C)cc1)c1ccc(C)cc1
inactive: [16] 100 % of control | dose: 100.0 mg/kg/injection, schedule: Q04DX002 (ip), vehicle: saline with Tween-80 97 % of control | dose: 200.0 mg/kg/injection, schedule: Q04DX002 (ip), vehicle: saline with Tween-80 98 % of control

CC1=C2C3OC(=O)C(C)C3CCC2(C)CCC1=O (stereo unspecified)
inactive: dose: 12.5 mg/kg/injection, schedule: Q04DX002 (ip), vehicle: saline with Tween-80 107 % of control | dose: 25.0 mg/kg/injection, schedule: Q04DX002 (ip), vehicle: saline with Tween-80 91 % of control | [16] 91 % of control

COc1ccc(OC)c(C(=O)c2cccc(C(=O)c3cc(OC)ccc3OC)n2)c1
inactive: [10] 99 % of control | [11] 109 % of control | [12] 119 % of control

O=[N+]([O-])c1ccc2nc3c4ccccc4c4ccccc4c3nc2c1
inactive: dose: 12.5 mg/kg/injection, schedule: Q01DX009 (ip), vehicle: saline with Tween-80 105 % of control | [17] 116 % of control | [18] 109 % of control and 117 % of control | [19] 105 % of control | [20] 104 % of control

O=C(Nc1ccc(Cl)cc1)Nc1nccs1
inactive: dose: 12.5 mg/kg/injection, schedule: Q01DX009 (ip), vehicle: distilled water + Tween-80 100 % of control | dose: 25.0 mg/kg/injection, schedule: Q01DX009 (ip), vehicle: distilled water + Tween-80 109 % of control | dose: 50.0 mg/kg/injection, schedule: Q01DX009 (ip), vehicle: distilled water + Tween-80 111 % of control | dose: 100.0 mg/kg/injection, schedule: Q01DX009 (ip), vehicle: distilled water + Tween-80 118 % of control

O=C(Nc1ccc(C2=NCCN2)c(O)c1)c1cccc(C(=O)Nc2ccc(C3=NCCN3)c(O)c2)c1
inactive: dose: 25.0 mg/kg/injection, schedule: Q01DX005 (ip), vehicle: Klucel (hydroxypropylcellulose) (HPC) 97 % of control | dose: 50.0 mg/kg/injection, schedule: Q01DX005 (ip), vehicle: Klucel (hydroxypropylcellulose) (HPC) 97 % of control | dose: 100.0 mg/kg/injection, schedule: Q01DX005 (ip), vehicle: Klucel (hydroxypropylcellulose) (HPC) 97 % of control | dose: 200.0 mg/kg/injection, schedule: Q01DX005 (ip), vehicle: Klucel (hydroxypropylcellulose) (HPC) 102 % of control

CCCCCCCCCCCOCC(=O)OC
inactive: [18] 99 % of control | [19] 101 % of control | [20] 100 % of control

CC1(C)SC(C2NC(=O)C(c3ccccc3)NC2=O)NC1C(=O)O (stereo unspecified)
inactive: [1] 105 % of control | [2] 99 % of control | [3] 101 % of control

COc1ccc(CSc2ncnc3nc[nH]c23)cc1
inactive: [17] 91 % of control | [18] 87 % of control

CCC(C)(F)C(N)C(=O)O (stereo unspecified)
inactive: [4] 100 % of control | [5] 97 % of control | [6] 100 % of control

C[N+](C)(Cn1nc(Cl)c2cc([N+](=O)[O-])ccc21)Cn1nc(Cl)c2cc([N+](=O)[O-])ccc21
inactive: dose: 50.0 mg/kg/injection, schedule: Q04DX003 (ip), vehicle: saline with Tween-80 93 % of control | dose: 200.0 mg/kg/injection, schedule: Q04DX003 (ip), vehicle: saline with Tween-80 88 % of control

CC(Oc1ccccc1)C(=O)N=c1scc(-c2ccc(Br)cc2)n1-c1cccc2ccccc12 (stereo unspecified)
inactive: dose: 6.25 mg/kg/injection, schedule: Q01DX009 (ip), vehicle: gum acacia 106 % of control | dose: 12.5 mg/kg/injection, schedule: Q01DX009 (ip), vehicle: gum acacia 106 % of control | dose: 25.0 mg/kg/injection, schedule: Q01DX009 (ip), vehicle: gum acacia 105 % of control | dose: 50.0 mg/kg/injection, schedule: Q01DX009 (ip), vehicle: gum acacia 101 % of control | dose: 100.0 mg/kg/injection, schedule: Q01DX009 (ip), vehicle: gum acacia 92 % of control | dose: 200.0 mg/kg/injection, schedule: Q01DX009 (ip), vehicle: gum acacia 98 % of control

O=CC(O)C(O)C1[O][Sb][O]C1CO (stereo unspecified)
inactive: [4] 99 % of control | [5] 100 % of control | [6] 103 % of control

Cc1ccc(I)c(C(C)(C)O)c1
inactive: [13] 100 % of control | [14] 95 % of control | [15] 97 % of control

N#Cc1c2ccccc2cc[n+]1Cc1ccc2c(c1)OCO2
inactive: dose: 3.12 mg/kg/injection, schedule: Q04DX002 (ip), vehicle: Klucel (hydroxypropylcellulose) (HPC) 105 % of control | dose: 6.25 mg/kg/injection, schedule: Q04DX002 (ip), vehicle: Klucel (hydroxypropylcellulose) (HPC) 104 % of control | dose: 12.5 mg/kg/injection, schedule: Q04DX002 (ip), vehicle: Klucel (hydroxypropylcellulose) (HPC) 100 % of control and 106 % of control
